# Data as given in paper PMC11352945, “Anticancer Activity of Benzo[a]phenoxazine Compounds Promoting Lysosomal Dysfunction” (Cells, 2024).
# Legend:
# SW480 cells = assay: Sulforhodamine B (SRB) cell viability assay, SW480; format: cell-based; conditions: Homo sapiens, CRC cell line, 48 h, read-out: IC50 (μM) ± SD, SW480
# Protocol: (§1) The cells were allowed to adhere overnight, from 12 h to 18 h, and then treated with increasing concentrations of each compound, C9, A36, and A42 (0.125 μM, 0.25 μM, 0.5 μM, 1 μM, 2.5 μM, and 5 μM), in their respective culture mediums for 48 h. In addition to a negative control that consisted only of cells and growth medium, a negative control containing the highest concentration of the solvent in which the compound was dissolved (DMSO 0.1%) was also used. The SRB assay was performed according to Marques et al.. The IC50 values were obtained using GraphPad Prism version 8.2.1 through the application of a sigmoidal dose–response nonlinear regression, after logarithmic transformation. The selectivity index was determined by dividing the IC50 value of the non-neoplastic BJ-5ta cell line by the IC50 value of the cancer cell lines (IC50 BJ-5ta/IC50 cancer cell line); furthermore, for the CRC model, a second selectivity index was also determined using the non-neoplastic NCM460 cell line (IC50 NCM460/IC50 CRC cell line). According to the results of the selectivity index, the cell line with the highest selectivity value for each of the models, CRC and breast, was selected for subsequent characterization.
# (§2) Three CRC-derived cell lines, SW480 (KRAS^G12V), HCT116 (KRAS^G13D), and RKO (BRAF^V600E), harboring somatic mutations on KRAS or BRAF, and two breast-cancer-derived cell lines, MDA-MB-231 (basal like) and MCF7 (luminal A subtype), together with two non-neoplastic cell lines, NCM460 (normal colon mucosal epithelial cell line) and BJ-5ta (normal foreskin fibroblast cell line), were used to study the activity and selectivity of the three new benzo[a]phenoxazine compounds, C9, A36, and A42. All cell lines were treated with a range of drug concentrations (0.125 μM, 0.25 μM, 0.5 μM, 1 μM, 2.5 μM, and 5 μM) for 48 h, and the effect on cell viability was assessed using a sulforhodamine B assay (SRB) (Figure 2). […] In addition, the selectivity index was determined using the BJ-5ta cell line as a reference, as well as the NCM460 cell line for the CRC model (Table 1).
# RKO cells [1] = assay: Annexin V/PI assay (flow cytometry), RKO; format: cell-based, human; conditions: 2 × IC50 and 4 × IC50, 48 h
# Protocol: (§3) RKO and MCF7 cells were seeded in 12-well plates at a density of 1 × 10^5 cells/mL. After 24 h, the cells were treated with C9, A36, and A42 at 2 × IC50 and 4 × IC50 concentrations or 0.1% DMSO (vehicle). Untreated cells were used as controls. After 48 h, floating and adherent cells were collected. The cells were resuspended in […] of binding buffer and treated for 15 min in the dark with 5 μL of Annexin V-FITC (Detection Kit-ab14085) and 5 μL of Propidium Iodide (50 μg/mL). The samples were subjected to flow cytometry analysis, PI fluorescence was detected using the ECD-A channel, and Annexin V fluorescence was detected using the FITC-A channel.
# (§4) One of the main goals of clinical oncology is the development of compounds and treatments capable of selectively eliminating cancer cells. In this sense, we next evaluated the capability of the compounds to induce cell death in both cell lines. For this, we performed a flow cytometry analysis using annexin V-FITC and propidium iodide PI double staining. The conjugation of these two probes allowed for the discrimination of viable (negative for both), early apoptotic (annexin + and PI−), late apoptotic (annexin+ and PI+), and necrotic (annexin− and PI+) cells. […] Both flouting and attached cells were harvested and double stained.
# MCF7 cells [2] = assay: Annexin V/PI assay (flow cytometry), MCF7; format: cell-based, human; conditions: MCF7, 2 × IC50 and 4 × IC50, 48 h
# Protocol: as §3, §4
# BJ-5ta cells = assay: Sulforhodamine B (SRB) cell viability assay, BJ-5ta; format: cell-based; conditions: Homo sapiens, non-neoplastic cell line, 48 h, read-out: IC50 (μM) ± SD, BJ-5ta
# Protocol: as §1, §2
# RKO cells [3] = assay: Sulforhodamine B (SRB) cell viability assay, RKO; format: cell-based; conditions: Homo sapiens, CRC cell line, 48 h, read-out: IC50 (μM) ± SD, RKO
# Protocol: as §1, §2
# MCF7 cells [4] = assay: Intracellular pH evaluation (BCECF-AM, flow cytometry), MCF7; format: cell-based, human; conditions: MCF7, 2 × IC50 and 4 × IC50, 48 h
# Protocol: (§5) Evaluations of the intracellular pHs (pHi) of the RKO and MCF7 cells were performed through a flow cytometry optimized protocol using the pH-sensitive probe BCECF-AM. RKO and MCF7 cells were seeded in 12-well plates at a density of 1 × 10^5 cells/mL. After 24 h, the cells were treated with the compounds C9, A36, and A42 at 2 × IC50 and 4 × IC50 concentrations or 0.1% DMSO (vehicle). As a control, untreated cells were used. Attached and floating cells were collected, washed, and then resuspended in Hank’s balanced salt solution (HBSS) after a 48 h treatment period. After that, the cells were stained with 1 μM of BCECF-AM for 30 min at 37 °C. The samples were analyzed by flow cytometry. The FITC-A and PE-A channels were used to detect the fluorescence mean of BCECF-AM.
# (§6) To further support LMP’s role in cell death induction, we investigated the effects of the compounds on intracellular pH (pHi), as LMP induction is associated with an increase in cytosolic proton levels and, as a result, a reduction in intracellular pH [67, 68, 69]. We used the dual-emission ratiometric pH-sensitive probe BCECF-AM, which emits fluorescence based on pHi. The result of acidification was shown by a decrease in the fluorescence ratio between BCECF-AM green (FITC-FL1) and red fluorescence (PE-FL2) (FL1/FL2). […]
# RKO cells [5] = assay: Intracellular pH evaluation (BCECF-AM, flow cytometry), RKO; format: cell-based, human; conditions: 2 × IC50 and 4 × IC50, 48 h
# Protocol: as §5, §6
smiles,measurement,setting,value
CCCNc1cc2oc3cc(=NCC)c(C)cc-3nc2c2ccccc12 [C9],IC50,SW480 cells,0.78 ± 0.09 µM
same,Cell death induction (Annexin V/PI),RKO cells [1],most powerful compounds
same,Cell death induction (Annexin V/PI),MCF7 cells [2],most powerful compounds
same,IC50,BJ-5ta cells,2.55 ± 0.15 µM
same,IC50,RKO cells [3],0.17 ± 0.01 µM
same,Intracellular acidification (BCECF-AM FL1/FL2 ratio),MCF7 cells [4],most pronounced effect
same,Intracellular acidification (BCECF-AM FL1/FL2 ratio),RKO cells [5],most pronounced effect
